Experimental data from patent US9493537B2, “Compounds with reduced ring size for use in diagnosing and treating melanoma, including metastatic melanoma and methods related to same” (STC.UNM, priority 2009, dated 2016).
Read-outs that look alike come from different tables or passages of the source.

What was measured:
[1] = Biodistribution in B16/F1 melanoma-bearing C57 mice; assay type: in vivo; conditions: female, C57, mouse, iv, total radioactivity; for tissue uptake at 24 h: 24 h post-injection; for tissue uptake at 0.5 h: 0.5 h post-injection; for tissue uptake at 4 h: 4 h post-injection
Method: (§1) All the animal studies were conducted in compliance with Institutional Animal Care and Use Committee approval. The mice were housed five animals per cage in sterile micro-isolator cages in a temperature- and humidity-controlled room with a 12-h light/12-h dark schedule. […] C57 mice were subcutaneously inoculated on the right flank with 1×10^6 B16/F1 cells. The weight of tumors reached approximately 0.2 g 10 days post cell inoculation. […] Groups of 5 mice were sacrificed at 0.5, 2, 4 and 24 h post-injection, and tumors and organs of interest were harvested, weighed and counted. Blood values were taken as 6.5% of the whole-body weight. […] The mice were sacrificed at 2 h post-injection. The tumor and organs of interest were harvested, weighed and counted.
(§2) All animal studies were conducted in compliance with Institutional Animal Care and Use Committee approval. The pharmacokinetics of ^111In-DOTA-GGNle-CycMSHhex and ^111In-DOTA-GENle-CycMSHhex were determined in B16/F1 melanoma-bearing C57 female mice (Harlan, Indianapolis, Ind.). The C57 mice were subcutaneously inoculated with 1×10^6 B16/F1 cells on the right flank for each mouse to generate B16/F1 melanomas. Ten days post inoculation, the tumor weights reached approximately 0.2 g. Each melanoma-bearing mouse was injected with 0.037 MBq of ^111In-DOTA-GGNle-CycMSHhex or ^111In-DOTA-GENle-CycMSHhex via the tail vein. Groups of 5 mice were sacrificed at 0.5, 2, 4 and 24 h post-injection, and tumors and organs of interest were harvested, weighed and counted. Blood values were taken as 6.5% of the whole-body weight. The specificities of the tumor uptake of ^111In-DOTA-GGNle-CycMSHhex and ^111In-DOTA-GENle-CycMSHhex were determined by co-injecting 10 μg (6.07 nmol) of unlabeled NDP-MSH which is a linear α-MSH peptide analogue with picomolar MC1 receptor binding affinity.

B16/F1 melanoma [2] = experiment: as above; assay type: in vivo
Method: as §1, §2

B16/F1 melanoma [3] = conditions: literature, cited from earlier work
[4] = pancreas, 0.037 MBq, read-out: Pancreas uptake
[5] = skin, 0.037 MBq, read-out: Skin uptake
[6] = spleen, 0.037 MBq, read-out: Spleen uptake
[7] = stomach, 0.037 MBq, read-out: Stomach uptake
[8] = tumor, 0.037 MBq, read-out: Tumor uptake

- tissue uptake at 24 h ([1]; muscle, 0.037 MBq, read-out: Muscle uptake): 0.03 ± 0.01 %ID/g
- tissue uptake at 2 h ([1]; muscle, 2 h post-injection, L-lysine co-injection, read-out: Muscle uptake): 0.1 ± 0.08 %ID/g
- tissue uptake at 2 h ([1]; muscle, 2 h post-injection, NDP blockade, read-out: Muscle uptake): 0.02 ± 0.01 %ID/g
- tissue uptake at 0.5 h [1, 4]: 1.18 ± 0.38 %ID/g
- tissue uptake at 2 h ([1]; pancreas, 0.037 MBq, 2 h post-injection, read-out: Pancreas uptake): 0.14 ± 0.02 %ID/g
- tissue uptake at 4 h [1, 4]: 0.16 ± 0.02 %ID/g
- tissue uptake at 24 h [1, 4]: 0.23 ± 0.08 %ID/g
- tissue uptake at 2 h ([1]; pancreas, 2 h post-injection, L-lysine co-injection, read-out: Pancreas uptake): 0.21 ± 0.05 %ID/g
- tissue uptake at 2 h ([1]; pancreas, 2 h post-injection, NDP blockade, read-out: Pancreas uptake): 0.12 ± 0.02 %ID/g
- tissue uptake at 0.5 h [1, 5]: 4.11 ± 0.72 %ID/g
- tissue uptake at 2 h ([1]; skin, 0.037 MBq, 2 h post-injection, read-out: Skin uptake): 0.66 ± 0.23 %ID/g
- tissue uptake at 4 h [1, 5]: 0.53 ± 0.05 %ID/g
- tissue uptake at 24 h [1, 5]: 0.64 ± 0.16 %ID/g
- tissue uptake at 2 h ([1]; skin, 2 h post-injection, L-lysine co-injection, read-out: Skin uptake): 1.02 ± 0.09 %ID/g
- tissue uptake at 2 h ([1]; skin, 2 h post-injection, NDP blockade, read-out: Skin uptake): 0.29 ± 0.02 %ID/g
- tissue uptake at 0.5 h [1, 6]: 1.09 ± 0.33 %ID/g
- tissue uptake at 2 h ([1]; spleen, 0.037 MBq, 2 h post-injection, read-out: Spleen uptake): 0.41 ± 0.13 %ID/g
- tissue uptake at 4 h [1, 6]: 0.47 ± 0.13 %ID/g
- tissue uptake at 24 h [1, 6]: 0.32 ± 0.08 %ID/g
- tissue uptake at 2 h ([1]; spleen, 2 h post-injection, L-lysine co-injection, read-out: Spleen uptake): 0.43 ± 0.07 %ID/g
- tissue uptake at 2 h ([1]; spleen, 2 h post-injection, NDP blockade, read-out: Spleen uptake): 0.44 ± 0.02 %ID/g
- tissue uptake at 0.5 h [1, 7]: 3.2 ± 0.98 %ID/g
- tissue uptake at 2 h ([1]; stomach, 0.037 MBq, 2 h post-injection, read-out: Stomach uptake): 1.25 ± 0.24 %ID/g
- tissue uptake at 4 h [1, 7]: 1.49 ± 0.12 %ID/g
- tissue uptake at 24 h [1, 7]: 1.34 ± 0.42 %ID/g
- tissue uptake at 2 h ([1]; stomach, 2 h post-injection, L-lysine co-injection, read-out: Stomach uptake): 1.64 ± 0.78 %ID/g
- tissue uptake at 2 h ([1]; stomach, 2 h post-injection, NDP blockade, read-out: Stomach uptake): 0.36 ± 0.14 %ID/g
- tissue uptake at 0.5 h [1, 8]: 24.9 ± 4.58 %ID/g
- tissue uptake at 2 h ([1]; tumor, 0.037 MBq, 2 h post-injection, read-out: Tumor uptake): 19.4 ± 1.65 %ID/g
- tissue uptake at 4 h [1, 8]: 17 ± 2.54 %ID/g
- tissue uptake at 24 h [1, 8]: 10.5 ± 1.11 %ID/g
- tissue uptake at 2 h ([1]; tumor, 2 h post-injection, L-lysine co-injection, read-out: Tumor uptake): 14.5 ± 3.25 %ID/g
- tissue uptake at 2 h ([1]; tumor, 2 h post-injection, NDP blockade, read-out: Tumor uptake): 0.81 ± 0.03 %ID/g
- dose excreted at 2 h ([1]; urine, 0.037 MBq, 2 h post-injection, read-out: Urine, percent injected dose): 82.2 ± 5.83%
- tumor uptake with NDP-MSH co-injection as percent of tumor uptake without (B16/F1 melanoma [2]; 10 μg NDP-MSH, 2 h after dose administration): 4.2%
- Kidneys uptake (B16/F1 melanoma [2]; 0.5 h post-injection): 16.20±4.32 % ID/g
- Tumor uptake (B16/F1 melanoma [2]; 0.5 h post-injection): 24.94±4.58 % ID/g
- Tumor uptake (B16/F1 melanoma [2]; 2 h post-injection): 19.39±2.72 % ID/g
- reduction of kidney uptake by L-lysine co-injection (B16/F1 melanoma [2]; 2 h post-injection): 30%
- renal uptake as percent of that of ^111In-DOTA-GlyGlu-CycMSH (B16/F1 melanoma [2]; 2 h post-injection): 72.8%
- tumor uptake, times that of ^111In-DOTA-GlyGlu-CycMSH (B16/F1 melanoma [2]; 2 h post-injection): 1.86 times
- Tumor uptake (B16/F1 melanoma [2]; 4 h post-injection): 17.01±2.54 % ID/g
- liver uptake as percent of that of ^99mTc(CO)3-pz-βAla-Nle-cyclo[Asp-His-D-Phe-Arg-Trp-Lys]-NH2 (B16/F1 melanoma [2]; 4 h post-injection): 7.5%
- renal uptake as percent of that of ^99mTc(CO)3-pz-βAla-Nle-cyclo[Asp-His-D-Phe-Arg-Trp-Lys]-NH2 (B16/F1 melanoma [2]; 4 h post-injection): 31.1%
- renal uptake as percent of that of ^111In-DOTA-GlyGlu-CycMSH (B16/F1 melanoma [2]; 4 h post-injection): 82.4%
- tumor uptake, times that of ^99mTc(CO)3-pz-βAla-Nle-cyclo[Asp-His-D-Phe-Arg-Trp-Lys]-NH2 (B16/F1 melanoma [2]; 4 h post-injection): 1.5 times
- Kidneys uptake (B16/F1 melanoma [2]; 24 h post-injection): 9.31±0.91 % ID/g
- Tumor uptake (B16/F1 melanoma [2]; 24 h post-injection): 10.53±1.11 % ID/g
- tumor activity at 2 h remaining in tumors at 24 h (B16/F1 melanoma [2]; 24 h post-injection): 54.3%
Structure (SMILES): CCCC[C@H](NC(=O)CN1CCN(CC(=O)O)CCN(CC(=O)O)CCN(CC(=O)O)CC1)C(=O)N[C@H]1CC(=O)NCCCC[C@@H](C(N)=O)NC(=O)[C@H](Cc2c[nH]c3ccccc23)NC(=O)[C@H](CCCNC(=N)N)NC(=O)[C@@H](Cc2ccccc2)NC(=O)[C@H](Cc2c[nH]cn2)NC1=O [^111In-DOTA-Nle-CycMSHhex, metal not drawn]
- tumor (melanoma) uptake (B16/F1 melanoma [3]; 0.5 h post-injection): 24.94±4.58 % ID/g
- tumor (melanoma) uptake (B16/F1 melanoma [3]; 2 h post-injection): 19.39±1.65 % ID/g
- tumor (melanoma) uptake (B16/F1 melanoma [3]; 4 h post-injection): 17.01±2.54 % ID/g
